Among the test systems are SR leukemia; TK-10 renal; PC-3 prostate; SK-MEL-5 melanoma; UO-31 renal; IGROV1 ovarian; A498 renal; OVCAR-8 ovarian; MDA-MB-435; OVCAR-5 ovarian.
Test in all cases: NCI-60 cell line screen, 48 h

Values joined by “and” are separate entries in the source; they are usually repeats but may differ in a detail not shown here. Equal entries are not always repeated.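 Exposure lasted 48 hours, with cells grown in 96-well plates and compounds tested at five concentrations. GI50 is the concentration that inhibits growth by half. The concentration for full growth arrest is given as TGI.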 Some results are limits rather than exact numbers.

On to `Cc1ncc(C(=O)Nc2ccc(CN3CCN(C)CC3)c(C(F)(F)F)c2)cc1C#Cc1c(N)ncc2ccccc12`, for which the GI50 is 0.26 µM in the test on SR leukemia; 0.623 µM with TK-10 renal; 0.461 µM in the test with PC-3 prostate; 0.446 µM in the test on SK-MEL-5 melanoma; 0.46 µM in the test on UO-31 renal; 0.208 µM in the test on IGROV1 ovarian. Also, the GI50 in the test with A498 renal was 0.485 µM; in the test on OVCAR-8 ovarian, 0.566 µM; in the test with MDA-MB-435, 0.163 µM; in the test with OVCAR-5 ovarian, 0.415 µM. In addition, the TGI in the test on SR leukemia was 1.04 µM; with TK-10 renal it was 1.12 µM; in the test with PC-3 prostate it was 0.996 µM; with SK-MEL-5 melanoma, 0.878 µM; with UO-31 renal, 1.27 µM; with IGROV1 ovarian, 0.823 µM. The TGI came to 0.939 µM in the test with A498 renal, 1.28 µM in the test on OVCAR-8 ovarian, 0.624 µM with MDA-MB-435 and 0.985 µM with OVCAR-5 ovarian.
With `CN(C)CCSCCO`, the TGI in the test with SR leukemia, with TK-10 renal, with PC-3 prostate, with SK-MEL-5 melanoma, in the test on UO-31 renal and in the test with IGROV1 ovarian was more than 100 µM throughout. For the same compound, the TGI in the test with A498 renal, in the test with OVCAR-8 ovarian, with MDA-MB-435 and in the test with OVCAR-5 ovarian was more than 100 µM throughout.
In the case of `Cn1cnc2c(F)c(Nc3ccc(Br)cc3F)c(C(=O)NOCCO)cc21`, the GI50 was more than 47 µM with SR leukemia; 3.07 µM and 1.34 µM with TK-10 renal; more than 100 µM with PC-3 prostate; 0.787 µM and 0.414 µM with SK-MEL-5 melanoma; 7.41 µM in the test with UO-31 renal; 0.0184 µM and 0.0314 µM in the test with A498 renal. Besides, the GI50 in the test with OVCAR-8 ovarian was > 2.17 µM and 99.7 µM; in the test on MDA-MB-435, 0.0609 µM and 0.0547 µM; with OVCAR-5 ovarian, 0.0286 µM and 0.022 µM. Further, the TGI with SR leukemia, with TK-10 renal, with PC-3 prostate, in the test with SK-MEL-5 melanoma, in the test with UO-31 renal and in the test with IGROV1 ovarian was more than 100 µM each time. In addition, the TGI with A498 renal was 0.275 µM and 0.394 µM; with OVCAR-8 ovarian, more than 100 µM; in the test on MDA-MB-435, more than 100 µM; in the test on OVCAR-5 ovarian it was more than 48.4 µM.
`Nc1c(C(=O)N/N=C/c2ccc(-c3cc(Cl)c(Cl)cc3Cl)o2)cnn1-c1ccnc2c(C(F)(F)F)cccc12`: the GI50 was 4.53 µM in the test with SR leukemia; 3.48 µM in the test on TK-10 renal; 2.09 µM with PC-3 prostate; 3.74 µM in the test on SK-MEL-5 melanoma; 3.49 µM in the test with UO-31 renal; 4.53 µM in the test with IGROV1 ovarian. Also, the results for the GI50 in the test on A498 renal, in the test with MDA-MB-435 and with OVCAR-5 ovarian were 3.89 µM, 3.85 µM and 5.29 µM, respectively. Further, the TGI in the test with SR leukemia was 72.9 µM; with TK-10 renal, more than 100 µM; with PC-3 prostate it was 6.03 µM; with SK-MEL-5 melanoma it was 14.6 µM; in the test on UO-31 renal, more than 100 µM; in the test with IGROV1 ovarian, more than 100 µM. For the same compound, the TGI with A498 renal is 37.7 µM; with MDA-MB-435, more than 100 µM; in the test on OVCAR-5 ovarian it was more than 100 µM.
As for `O=C(N/N=C/c1ccc(Cl)cc1Cl)c1ccc2nc(-c3ccc(Cl)cc3)[nH]c2c1`, the GI50 was 1.01 µM in the test with SR leukemia; 2.06 µM in the test with TK-10 renal; 1.55 µM in the test on PC-3 prostate; 1.81 µM in the test on SK-MEL-5 melanoma; 1.58 µM in the test on UO-31 renal; 1.5 µM in the test with IGROV1 ovarian. For the same compound, the GI50 is 1.74 µM in the test on A498 renal, 2.11 µM in the test with OVCAR-8 ovarian, 1.73 µM with MDA-MB-435 and 1.85 µM in the test on OVCAR-5 ovarian. Also, the TGI in the test with SR leukemia was determined as 3.95 µM; with TK-10 renal it was 4.3 µM; in the test on PC-3 prostate, 3.3 µM; in the test on SK-MEL-5 melanoma, 3.39 µM; with UO-31 renal, 2.99 µM; with IGROV1 ovarian it was 2.98 µM. The TGI in the test on A498 renal is 4.94 µM; in the test with OVCAR-8 ovarian it was 4.74 µM; in the test with MDA-MB-435, 3.35 µM; in the test on OVCAR-5 ovarian, 3.97 µM.
As to `c1ccc(B2OCC(C3OB(c4ccccc4)OC4COB(c5ccccc5)OC43)O2)cc1` (configuration not stated), the TGI with SR leukemia, in the test with TK-10 renal, in the test with PC-3 prostate, in the test on SK-MEL-5 melanoma, in the test with UO-31 renal and in the test with IGROV1 ovarian was more than 100 µM throughout. In addition, the TGI in the test on A498 renal, in the test on OVCAR-8 ovarian, in the test with MDA-MB-435 and in the test on OVCAR-5 ovarian was more than 100 µM each time.
Consider `COc1ccc2c(c1)c(-c1ccc(-c3cn(C)c4ccc(OC)cc34)[nH]1)cn2C`, for which the GI50 with SR leukemia is 1.31 µM; in the test on TK-10 renal, 3.56 µM; in the test on PC-3 prostate, 1.58 µM; in the test with SK-MEL-5 melanoma it was 4.2 µM; in the test with UO-31 renal, 1.42 µM; in the test on IGROV1 ovarian, 1.89 µM. In addition, the GI50 in the test on A498 renal is 10.9 µM; in the test with OVCAR-8 ovarian it was 2.71 µM; with MDA-MB-435, 4.92 µM; in the test with OVCAR-5 ovarian it was 3.11 µM. In addition, the TGI with SR leukemia stood at 4.01 µM; in the test with TK-10 renal it was 10.7 µM; in the test with PC-3 prostate, 5.71 µM; with SK-MEL-5 melanoma, 14.4 µM; with UO-31 renal it was 2.83 µM; in the test on IGROV1 ovarian, 4.35 µM. For the same compound, the TGI with A498 renal was 49.1 µM; in the test with OVCAR-8 ovarian it was 12.2 µM; in the test on MDA-MB-435, 20.6 µM; with OVCAR-5 ovarian it was 11 µM.
Take `Nc1cc(S(N)(=O)=O)ccc1SSc1ccc(S(N)(=O)=O)cc1N`: the TGI in the test on SR leukemia, with TK-10 renal, in the test on PC-3 prostate, in the test on SK-MEL-5 melanoma, in the test with UO-31 renal and in the test on IGROV1 ovarian was more than 100 µM each time. For the same compound, the TGI in the test on A498 renal, in the test with OVCAR-8 ovarian, in the test on MDA-MB-435 and with OVCAR-5 ovarian was more than 100 µM in each case.
Regarding `Cc1cc(C)c(S(=O)(=O)N(CCc2cccc(Br)c2)Cc2ccc(-c3cccc(S(C)(=O)=O)c3)cc2)c(C)c1`, the GI50 with SR leukemia, in the test on TK-10 renal, with PC-3 prostate, with SK-MEL-5 melanoma, with UO-31 renal and with IGROV1 ovarian was more than 100 µM throughout. Moreover, the GI50 in the test with A498 renal, with OVCAR-8 ovarian, in the test on MDA-MB-435 and in the test on OVCAR-5 ovarian was more than 100 µM each time. The TGI with SR leukemia, with TK-10 renal, in the test with PC-3 prostate, in the test with SK-MEL-5 melanoma, in the test on UO-31 renal and with IGROV1 ovarian was more than 100 µM each time. For the same compound, the TGI with A498 renal, with OVCAR-8 ovarian, with MDA-MB-435 and in the test on OVCAR-5 ovarian was more than 100 µM in each case.

The record behind these values is PubChem BioAssay (NCI).
